According to US7291341B2, “Stresscopins and their uses” (The Board of Trustees of the Leland Stanford Junior …, priority 2000, dated 2007):
Ends that are not written are not given here.

Legend:
[1] = test system: recombinant CRHR2; assay: cAMP production by 293T cells transfected with recombinant CRHR2 (two isoforms); format: cell-based; settings: for cAMP production mediated by recombinant CRHR2: 293T cells transiently transfected, two isoforms of CRHR2 (FIGS. 3c-3d)
Experimental: (§1) FIG. 3. […] Hormonal stimulation of cAMP production by FIG. 3a. CRHR2-containing rat cardiac A7r5 cells, FIG. 3b. CRHR1-containing human retinoblastoma Y79 cells, FIG. 3c. recombinant CRHR2, FIG. 3d. recombinant CRHR2 and, FIG. 3e. recombinant CRHR1. Cells incubated with the test peptide or vehicle were harvested at 16 h after treatment and heated to 95° C. for 5 mm to inactivate phosphodiesterase activity before cAMP measurement. FIG. 3f. […] Data are the mean SEM (N=4). SCP1-0.1, stresscopin 1 (0.1 nM); SCP1, stresscopin 1 (1 nM); SCP1(2-43), truncated stresscopin 1 with the first amino acid deleted; SCP1 (3-43), truncated stresscopin 1 with 2-amino-acid deletion; SCP1 (4-43), truncated stresscopin 1 with 3-amino-acid deletion; SCP1 (5-43), truncated stresscopin 1 with 4-amino-acid deletion; SCP1 (6-43), truncated stresscopin 1 with 5-amino-acid deletion; SCP1-NA-0.1, full-length stresscopin 1 devoid of amidation at the C-terminus (0.1 nM); SCP1-NA, full-length stresscopin 1 devoid of amidation at the C-terminus (1 nM); UCN, urocortin. FIGS. 3g and 3h. […] Data are mean SEM (N=3).
(§2) The receptor cDNA fragments were subcloned into the pcDNA3.1/Zeo vector with a prolactin signal peptide for secretion and triple FLAG/M1 epitope cassette upstream of the multiple cloning site. […] For the estimation of adenylate cyclase activation by stresscopin and related hormones, transfected cells were seeded at a concentration of 100,000 cell/well in 48 well culture plates in DMEM/F12 medium containing 0.1% BSA and 2.5mM IBMX for 16 h. Contents of cAMP in whole cell lysate were determined using a cAMP radioimmunoassay.

[2] = molecular target: T1, CRHR2-containing rat cardiac A7r5 cells (Rattus norvegicus, UniProt P47866); assay: cAMP production in CRHR2-containing rat cardiac A7r5 cells; format: cell-based; settings: harvested 16 h after treatment (FIG. 3a)
T1 construct: cells constitutively expressing CRH receptors; host or cells: A7r5 (rat)
Experimental: as §1, §2

[3] = test system: ACTH release in intact male rats; assay: ACTH secretion in vivo; design: species or system rat; settings: i.p. 2 nmoles/kg, 30 min, FIG. 4b
Experimental: (§3) FIG. 4. […] ACTH contents in culture media and serum were determined using a radioimmunoassay. For in vivo studies, male rats were injected i.p. with test peptides (2 nmoles/kg B.W.) and sacrificed 30 mm later. Data are mean SEM (N=4). FIG. 4c. Anti-edema response regulated by stresscopins. Stresscopin 1 (20 nmoles/kg), stresscopin 2 (100 nmoles/kg), and related hormones (20 nmoles/kg) suppress heat-induced paw edema formation in anaesthetized rats (N=6). FIG. 4d. Cumulative food intake in mice treated with stresscopin 1 (left panel, N=6) and stresscopin 2 (right panel, N=4) peptides and other hormones at 2, 4, and 8 h after treatment. FIG. 4e. Reduction of gastric emptying by stresscopin 1 (blank bars, 8 nmoles/kg; hatched bars, 80 nmoles/kg), stresscopin 2 (blank bars, 80 nmoles/kg; hatched bars, 200 nmoles/kg), and related hormones (blank bars, 8 nmoles/kg; hatched bars, 80 nmoles/kg) at 2 h after hormone treatment (N=6). The rates of gastric emptying were calculated by the formula (wet weight of stomach at 2 h after treatment/wet weight of stomach in fed animals sacrificed at 0 h). SCP1 is stresscopin 1; SCP2 is stresscopin 2; UCN is urocortin; SCP1 (11-43) is truncated stresscopin 1 with the first 10 amino acids deleted.
(§4) In Vivo and in Vitro assay of pituitary ACTH releasing activity. Anterior pituitaries were obtained from 6-week-old male Sprague-Dawley rats. […]

[4] = test system: fasting mice; assay: Food intake and body weight in food-restricted mice; format: in vivo; settings: for cumulative food intake: i.p., fasting mice, 2, 4 and 8 h after treatment, FIG. 4d; for Average body weight change/mouse / Average food intake/mouse: fasted animals, 2 h after treatment, N = 5
Experimental: as §3
Food intake and body weight in food-restricted mice. Six week-old male mice (20-25 g b.w.) of the inbreed Balb/C strain were housed individually in a regulated environment with 12L/12D light cycle. Before feeding tests, mice were deprived of food for 16 h with free access to water and injected with testing reagents i.p. at 10 AM the following day. Food intake was measured by placing preweighed pellets in the cage and weighing the uneaten pellets at 2, 4 and 8 h after injection. Body weight was also monitored at 0, 2, 4, and 8 h.

[5] = test system: heat-induced paw edema in anaesthetized rats; assay: Heat-induced paw edema formation in anaesthetized rats; format: in vivo, rat; settings: i.p., FIG. 4c
Experimental: as §3
Effects on heat-induced paw edema formation in anaesthetized rats. The anti-inflammatory effect of stresscopin and related peptides were assayed using an established model (Turnbull et al. (1996) Euro. J. Pharmacol. 303:213-216). Briefly, 5-week-old male Sprague-Dawley rats were injected with […] of the testing peptide and anaesthetized with ketamine (100 mg/Kg). Thirty min. later, paw edema was induced following a one minute exposure to hot water at 58° C. The animals were sacrificed 30 min later. Both paws were removed at the ankle joint and weighed. The degree of edema was estimated as the differences in weight gain between the heated and unheated paw divided by the weight of the unheated paw.

[6] = test system: cultured rat anterior pituitary cells; assay: ACTH release by cultured anterior pituitary cells in vitro; format: cell-based; settings: hormones 1 nM, 2 h at 37° C., FIG. 4a
Experimental: as §3, §4

[7] = test system: gastric emptying in food-restricted mice; assay: Gastric emptying in food-restricted mice; format: in vivo; settings: i.p., 2 h after hormone treatment, FIG. 4e
Experimental: as §3
Effects on gastric emptying in food-restricted mice. To study the effects on gastric emptying, mice were deprived of food for 16 h with free access to water. The fasted mice were then given free access to preweighed pellets for 90 min. and were injected i.p. with different hormones or saline. The mice were deprived of food again after i.p. injection and sacrificed by cervical dislocation at 2 h. after injection. The stomach was excised at point of the pylorus and cardia before determination of its wet weight. Gastric emptying was calculated by comparison with stomach weight of control mice sacrificed at 0 h. following injection. See, Asakawa, A. et al. (1999) Gastroenterology 116:1287-1292.

[8] = molecular target: T2, CRHR1-containing human retinoblastoma Y79 cells (Homo sapiens, UniProt P34998); assay: cAMP production in CRHR1-containing human retinoblastoma Y79 cells; format: cell-based; settings: harvested 16 h after treatment (FIG. 3b)
T2 construct: cells constitutively expressing CRH receptors; host or cells: Y79 (human retinoblastoma)
T2 sequence (P34998 24-415): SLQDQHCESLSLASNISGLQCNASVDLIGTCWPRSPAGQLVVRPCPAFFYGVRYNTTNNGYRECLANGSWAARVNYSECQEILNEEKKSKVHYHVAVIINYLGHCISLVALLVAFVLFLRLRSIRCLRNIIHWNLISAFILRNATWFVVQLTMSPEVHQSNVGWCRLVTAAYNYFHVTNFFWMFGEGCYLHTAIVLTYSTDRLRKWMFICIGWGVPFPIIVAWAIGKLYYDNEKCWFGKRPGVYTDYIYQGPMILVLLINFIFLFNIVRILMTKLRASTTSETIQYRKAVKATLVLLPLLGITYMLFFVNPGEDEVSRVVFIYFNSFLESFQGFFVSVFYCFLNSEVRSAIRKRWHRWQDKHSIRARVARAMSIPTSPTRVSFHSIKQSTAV
Experimental: (§5) CRHR1-containing human retinoblastoma Y79 cells, FIG. 3c. recombinant CRHR2, FIG. 3d. recombinant CRHR2 and, FIG. 3e. recombinant CRHR1. Cells incubated with the test peptide or vehicle were harvested at 16 h after treatment and heated to 95° C. for 5 mm to inactivate phosphodiesterase activity before cAMP measurement. […] Data are the mean SEM (N=4). SCP1-0.1, stresscopin 1 (0.1 nM); SCP1, stresscopin 1 (1 nM); SCP1(2-43), truncated stresscopin 1 with the first amino acid deleted; SCP1 (3-43), truncated stresscopin 1 with 2-amino-acid deletion; SCP1 (4-43), truncated stresscopin 1 with 3-amino-acid deletion; SCP1 (5-43), truncated stresscopin 1 with 4-amino-acid deletion; SCP1 (6-43), truncated stresscopin 1 with 5-amino-acid deletion; SCP1-NA-0.1, full-length stresscopin 1 devoid of amidation at the C-terminus (0.1 nM); SCP1-NA, full-length stresscopin 1 devoid of amidation at the C-terminus (1 nM); UCN, urocortin. […] Data are mean SEM (N=3).

[9] = molecular target: T3, recombinant CRHR1 (Homo sapiens, UniProt P34998); assay: cAMP production by 293T cells transfected with recombinant CRHR1; format: cell-based; settings: 293T cells transiently transfected (FIG. 3e)
T3 construct: prolactin signal peptide (N); expressed in transfected cells; host or cells: human 293T cells, pcDNA3.1/Zeo vector
T3 sequence (P34998 24-415): T2 sequence (P34998 24-415)
Experimental: as §5

[10] = test system: CRH R2; assay: Receptor binding assay, displacement of 125I-urocortin; settings: 293T cells transfected with CRHR2 isoforms (FIGS. 3g, 3h)
Experimental: as §1
Receptor Binding assay. […] After 60 min incubation at 37° C., the cell-associated ligand was estimated following centrifugation and repeated washing. Radioactivity of samples was determined in a GENESYS-counter (Laboratory Technologies, Inc., Maple Park, Ill.).

T1 sequence (P47866 1-431 isoform P47866-2): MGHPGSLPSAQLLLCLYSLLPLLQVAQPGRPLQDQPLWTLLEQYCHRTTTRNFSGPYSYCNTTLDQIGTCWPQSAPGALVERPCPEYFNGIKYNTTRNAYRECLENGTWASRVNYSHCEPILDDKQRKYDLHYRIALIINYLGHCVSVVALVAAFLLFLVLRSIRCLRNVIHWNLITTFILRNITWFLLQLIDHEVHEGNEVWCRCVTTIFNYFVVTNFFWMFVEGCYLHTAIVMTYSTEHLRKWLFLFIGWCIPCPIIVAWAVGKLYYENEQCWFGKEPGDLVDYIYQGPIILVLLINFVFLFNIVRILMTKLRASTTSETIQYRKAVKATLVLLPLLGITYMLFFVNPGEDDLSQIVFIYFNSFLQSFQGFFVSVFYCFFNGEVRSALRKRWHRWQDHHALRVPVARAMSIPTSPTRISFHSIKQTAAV
Sequence of recombinant CRHR2 (Q13324 35-411 limits assumed): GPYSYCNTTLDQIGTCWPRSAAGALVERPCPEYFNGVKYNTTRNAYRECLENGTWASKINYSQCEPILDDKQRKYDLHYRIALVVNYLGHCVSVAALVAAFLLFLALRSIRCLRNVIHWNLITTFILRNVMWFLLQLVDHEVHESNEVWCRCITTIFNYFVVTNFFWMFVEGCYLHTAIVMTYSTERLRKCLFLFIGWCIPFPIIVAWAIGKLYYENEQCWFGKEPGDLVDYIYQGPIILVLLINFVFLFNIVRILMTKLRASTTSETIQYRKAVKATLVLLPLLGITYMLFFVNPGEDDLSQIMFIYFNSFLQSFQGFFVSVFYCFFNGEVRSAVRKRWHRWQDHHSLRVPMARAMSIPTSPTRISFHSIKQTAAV

For “SCP1-NA: full-length stresscopin 1 devoid of amidation at the C-terminus (HPGSRIVLSLDVILGLLQILLEQARARAAREQATTNARILARV-OH)”, the “reduction in ability to stimulate cAMP production” value ([1]; compared to amidated stresscopin 1) was > 50 fold.

In the case of “CRH: corticotropin releasing hormone, 41-amino acid peptide; purchased from Sigma Biochemicals [reference compound]”, the cAMP production [2] is reported as “stimulated cAMP production”, the “ACTH release in vivo” value [3] is reported as “stimulated the release of ACTH” and the “cAMP production mediated by recombinant CRHR2” value [1] is reported as “stimulated cAMP production”. The cumulative food intake [4] was “dose-dependently decreased food intake”, the heat-induced edema formation ([5]; 20 nmoles/kg) was “suppressed heat-induced edema formation” and the “ACTH release in vitro” value [6] was “stimulated the release of ACTH”. For the same substance, the gastric emptying activity [7] was “suppressed gastric emptying activity”.

In the case of “urocortin: 40 amino acid peptide, ligand for the CRH receptors; purchased from Sigma Biochemicals (DNPSLSIDLTFHLLRTLLELARTQSQRERAEQNRIIFDSV; ends and bridges not checked; UniProt P55089 83-122, looked up) [reference compound]”, the cAMP production [2] is reported as “stimulated cAMP production”, the “ACTH release in vivo” value [3] is reported as “stimulated the release of ACTH” and the cAMP production [8] is reported as “stimulated cAMP production”. For the same substance, the “cAMP production mediated by recombinant CRHR2” value [1] was “stimulated cAMP production”, the cumulative food intake [4] was “dose-dependently decreased food intake” and the heat-induced edema formation ([5]; 20 nmoles/kg) was “suppressed heat-induced edema formation”. The “ACTH release in vitro” value [6] was “stimulated the release of ACTH”, the “cAMP production mediated by recombinant CRHR1” value [9] was “stimulated cAMP production” and the gastric emptying activity [7] was “suppressed gastric emptying activity”.

For “stresscopin 1: mature 43 amino acid peptide, SEQ ID NO:3, derived from a 112 amino acid precursor; selective CRH-R2 ligand (HPGSRIVLSLDVILGLLQILLEQARARAAREQATTNARILARV; listed as Homo sapiens)”, the cAMP production [2] was “stimulated cAMP production”, the “ability to bind CRHR2 (displacement of labeled urocortin)” value [10] was “bind” and the cAMP production [8] was “ineffective”. For the same substance, the “cAMP production mediated by recombinant CRHR2” value [1] was “potent agonists”, the “higher potency as compared to stresscopin 2 and the pufferfish peptide” value ([1]; activation of type-2 CRH receptors, cAMP) was > 10 fold and the “Average body weight change/mouse” value ([4]; 20 nM) was 0.31 ± 0.14 grams. The Average food intake/mouse ([4]; 20 nM) was 0.185 grams, the cumulative food intake [4] was “dose-dependently decreased food intake” and the heat-induced edema formation ([5]; 20 nmoles/kg) was “suppressed heat-induced edema formation”. The gastric emptying activity [7] was “suppressed gastric emptying activity”.

With “stresscopin 2: mature peptide of 40 amino acids, SEQ ID NO:6, derived from a 161 amino acid precursor protein (TKFTLSLDVPTNIMNLLFNIAKAKNLRAQAAANAHLMAQI; listed as Homo sapiens)” the “ability to bind CRHR2 (displacement of labeled urocortin)” value [10] was “bind”, the “cAMP production mediated by recombinant CRHR2” value [1] was “potent agonists” and the “Average body weight change/mouse” value ([4]; 2 nM) was −0.19 ± 0.24 grams. The Average food intake/mouse ([4]; 2 nM) was 0.176 grams, the “Average body weight change/mouse” value ([4]; 20 nM) was 0.11 ± 0.1 grams and the Average food intake/mouse ([4]; 20 nM) was 0.152 grams. The cumulative food intake [4] was “dose-dependently decreased food intake”, the heat-induced edema formation ([5]; 100 nmoles/kg) was “suppressed heat-induced edema formation” and the gastric emptying activity [7] was “suppressed gastric emptying activity”.
